The nature of this data set: recombinant barcode read abundance after kanamycin selection (control-corrected) (log10(CPM+1)); higher = more efficient recombination; sequences stand for … in AGTGCAGAGAAAATCGGCCAGTTTTCTCTGCCTGCAGTCCGCATGCCGT…ATTTATGCAGCGGACTGCCTTTCTCCCAAAGTGATAAACCGGACAGTATCATGGACCGGTTTTCCCGGTAATCCGTATTTGCAAGGTTGGTTTCACT; site = the 11-nt target. The essentials: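 Two replicates per condition were plated: chloramphenicol/ampicillin LB agar for the control, and chloramphenicol/ampicillin/kanamycin with 0.1 mM IPTG for selection. The pooled E. coli screen behind them paired targets with IS621 bridge RNA target-binding loops. Recombination efficiency is expressed from averaged, control-corrected barcode counts per million at recombinant junctions, as log10(CPM+1).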

This is an account of results in the supplement of paper PMC11208160.

Take “GAGGCCTCTTGGGTTCTAACCTGTTGCCATT [GAGGCCTCTTG_LTGcore_CT_RTGcore_AA] (site GAGGCCTCTTG) (LTG core: CT, RTG core: AA)”: the “recombinant barcode read abundance (log10)” value is 0.0215.
Consider “GAGGCCTTTTGGGTTCTAACCTGTTGCCAAG [GAGGCCTCTTG_LTGcore_TT_RTGcore_CT] (site GAGGCCTCTTG) (LTG core: TT, RTG core: CT)”, for which the “recombinant barcode read abundance (log10)” value came out at 0.0682.
As for “GAGTCCAAGTGGGTTCTAACCTGTTGCGTCT [GAGTCCACTAC_LTGcore_AG_RTGcore_AG] (site GAGTCCACTAC) (LTG core: AG, RTG core: AG)”, the figure is 0.0337; as for “GAGTCCACCTGGGTTCTAACCTGTTGCGTAG [GAGTCCACTAC_LTGcore_CC_RTGcore_CT] (site GAGTCCACTAC) (LTG core: CC, RTG core: CT)”, 0.172.
As for “GAGTCCACGTGGGTTCTAACCTGTTGCGTCG [GAGTCCACTAC_LTGcore_CG_RTGcore_CG] (site GAGTCCACTAC) (LTG core: CG, RTG core: CG)”, the figure is 0.405.
Next, “GAGTCCACTTGGGTTCTAACCTGTTGCGTCT [GAGTCCACTAC_LTGcore_CT_RTGcore_AG] (site GAGTCCACTAC) (LTG core: CT, RTG core: AG)”: 0; “GAGTCCACTTGGGTTCTAACCTGTTGCGTGT [GAGTCCACTAC_LTGcore_CT_RTGcore_AC] (site GAGTCCACTAC) (LTG core: CT, RTG core: AC)”: 0.0606; “GAGTCCACTTGGGTTCTAACCTGTTGCGTTG [GAGTCCACTAC_LTGcore_CT_RTGcore_CA] (site GAGTCCACTAC) (LTG core: CT, RTG core: CA)”: 0.
Take “GAGTCCAGATGGGTTCTAACCTGTTGCGTAG [GAGTCCACTAC_LTGcore_GA_RTGcore_CT] (site GAGTCCACTAC) (LTG core: GA, RTG core: CT)”: the “recombinant barcode read abundance (log10)” value came out at 0.294.
As to “GAGTCCAGCTGGGTTCTAACCTGTTGCGTGC [GAGTCCACTAC_LTGcore_GC_RTGcore_GC] (site GAGTCCACTAC) (LTG core: GC, RTG core: GC)”, the “recombinant barcode read abundance (log10)” value came to 0.174.
For the sequence “GAGTCCAGGTGGGTTCTAACCTGTTGCGTCC [GAGTCCACTAC_LTGcore_GG_RTGcore_GG] (site GAGTCCACTAC) (LTG core: GG, RTG core: GG)”, the “recombinant barcode read abundance (log10)” value was 0.0822.
As for “GAGTCCATATGGGTTCTAACCTGTTGCGTTA [GAGTCCACTAC_LTGcore_TA_RTGcore_TA] (site GAGTCCACTAC) (LTG core: TA, RTG core: TA)”, the figure is 0.0207.
As to “GAGTCCATCTGGGTTCTAACCTGTTGCGTAG [GAGTCCACTAC_LTGcore_TC_RTGcore_CT] (site GAGTCCACTAC) (LTG core: TC, RTG core: CT)”, the “recombinant barcode read abundance (log10)” value was determined as 0.0202.
As for “GAGTCCATCTGGGTTCTAACCTGTTGCGTGA [GAGTCCACTAC_LTGcore_TC_RTGcore_TC] (site GAGTCCACTAC) (LTG core: TC, RTG core: TC)”, the figure is 0.0654.
“GAGTCCATTTGGGTTCTAACCTGTTGCGTAG [GAGTCCACTAC_LTGcore_TT_RTGcore_CT] (site GAGTCCACTAC) (LTG core: TT, RTG core: CT)”: the “recombinant barcode read abundance (log10)” value is 0.0725.
As for “GAGTCCTAATGGGTTCTAACCTGTTGCCTAG [GAGTCCTCTAG_LTGcore_AA_RTGcore_CT] (site GAGTCCTCTAG) (LTG core: AA, RTG core: CT)”, the figure is 0.149; as for “GAGTCCTAATGGGTTCTAACCTGTTGCCTTT [GAGTCCTCTAG_LTGcore_AA_RTGcore_AA] (site GAGTCCTCTAG) (LTG core: AA, RTG core: AA)”, 0.11.
Next, “GAGTCCTCTTGGGTTCTAACCTGTTGCCTCA [GAGTCCTCTAG_LTGcore_CT_RTGcore_TG] (site GAGTCCTCTAG) (LTG core: CT, RTG core: TG)”: 0.316; “GAGTCCTCTTGGGTTCTAACCTGTTGCCTCG [GAGTCCTCTAG_LTGcore_CT_RTGcore_CG] (site GAGTCCTCTAG) (LTG core: CT, RTG core: CG)”: 1.19; “GAGTCCTCTTGGGTTCTAACCTGTTGCCTGT [GAGTCCTCTAG_LTGcore_CT_RTGcore_AC] (site GAGTCCTCTAG) (LTG core: CT, RTG core: AC)”: 0.0922.
Take “GAGTCCTGGTGGGTTCTAACCTGTTGCCTAG [GAGTCCTCTAG_LTGcore_GG_RTGcore_CT] (site GAGTCCTCTAG) (LTG core: GG, RTG core: CT)”: the “recombinant barcode read abundance (log10)” value came to 0.165.
As for “GAGTCCTGTTGGGTTCTAACCTGTTGCCTAG [GAGTCCTCTAG_LTGcore_GT_RTGcore_CT] (site GAGTCCTCTAG) (LTG core: GT, RTG core: CT)”, the figure is 0.165; as for “GAGTCCTTGTGGGTTCTAACCTGTTGCCTAG [GAGTCCTCTAG_LTGcore_TG_RTGcore_CT] (site GAGTCCTCTAG) (LTG core: TG, RTG core: CT)”, 0.0483.
As for “GCGCGACAGTGGGTTCTAACCTGTTGCTTCT [GCGCGACCTAA_LTGcore_AG_RTGcore_AG] (site GCGCGACCTAA) (LTG core: AG, RTG core: AG)”, the figure is 0.313; as for “GCGCGACATTGGGTTCTAACCTGTTGCTTAG [GCGCGACCTAA_LTGcore_AT_RTGcore_CT] (site GCGCGACCTAA) (LTG core: AT, RTG core: CT)”, 0.0488; as for “GCGCGACATTGGGTTCTAACCTGTTGCTTAT [GCGCGACCTAA_LTGcore_AT_RTGcore_AT] (site GCGCGACCTAA) (LTG core: AT, RTG core: AT)”, 0.493.
As for “GCGCGACCTTGGGTTCTAACCTGTTGCTTAG [GCGCGACCTAA_LTGcore_CT_RTGcore_CT] (site GCGCGACCTAA) (LTG core: CT, RTG core: CT)”, the figure is 0.515.
On to “GCGCGACGATGGGTTCTAACCTGTTGCTTTC [GCGCGACCTAA_LTGcore_GA_RTGcore_GA] (site GCGCGACCTAA) (LTG core: GA, RTG core: GA)”, for which the “recombinant barcode read abundance (log10)” value worked out at 0.0229.
Turning to “GCGCGACTGTGGGTTCTAACCTGTTGCTTAG [GCGCGACCTAA_LTGcore_TG_RTGcore_CT] (site GCGCGACCTAA) (LTG core: TG, RTG core: CT)”, the “recombinant barcode read abundance (log10)” value turned out to be 0.0192.
Next, “GCGCGACTTTGGGTTCTAACCTGTTGCTTAA [GCGCGACCTAA_LTGcore_TT_RTGcore_TT] (site GCGCGACCTAA) (LTG core: TT, RTG core: TT)”: 0.108; “GCGGGACCGTGGGTTCTAACCTGTTGCCTCG [GCGGGACCTAG_LTGcore_CG_RTGcore_CG] (site GCGGGACCTAG) (LTG core: CG, RTG core: CG)”: 0.248; “GCGGGACCTTGGGTTCTAACCTGTTGCCTAA [GCGGGACCTAG_LTGcore_CT_RTGcore_TT] (site GCGGGACCTAG) (LTG core: CT, RTG core: TT)”: 1.15.
Next, “GCGGGACCTTGGGTTCTAACCTGTTGCCTAC [GCGGGACCTAG_LTGcore_CT_RTGcore_GT] (site GCGGGACCTAG) (LTG core: CT, RTG core: GT)”: 0.997; “GCGGGACCTTGGGTTCTAACCTGTTGCCTAG [GCGGGACCTAG_LTGcore_CT_RTGcore_CT] (site GCGGGACCTAG) (LTG core: CT, RTG core: CT)”: 2.64; “GCGGGACCTTGGGTTCTAACCTGTTGCCTAT [GCGGGACCTAG_LTGcore_CT_RTGcore_AT] (site GCGGGACCTAG) (LTG core: CT, RTG core: AT)”: 1.68.
As for “GCGGGACCTTGGGTTCTAACCTGTTGCCTCG [GCGGGACCTAG_LTGcore_CT_RTGcore_CG] (site GCGGGACCTAG) (LTG core: CT, RTG core: CG)”, the figure is 1.7.
As to “GCGGGACCTTGGGTTCTAACCTGTTGCCTGA [GCGGGACCTAG_LTGcore_CT_RTGcore_TC] (site GCGGGACCTAG) (LTG core: CT, RTG core: TC)”, the “recombinant barcode read abundance (log10)” value was 0.0737.
Next, “GCGGGACCTTGGGTTCTAACCTGTTGCCTTG [GCGGGACCTAG_LTGcore_CT_RTGcore_CA] (site GCGGGACCTAG) (LTG core: CT, RTG core: CA)”: 1.08.
As for “GCGGGACGATGGGTTCTAACCTGTTGCCTAG [GCGGGACCTAG_LTGcore_GA_RTGcore_CT] (site GCGGGACCTAG) (LTG core: GA, RTG core: CT)”, the figure is 0.171; as for “GCGGGACTATGGGTTCTAACCTGTTGCCTTA [GCGGGACCTAG_LTGcore_TA_RTGcore_TA] (site GCGGGACCTAG) (LTG core: TA, RTG core: TA)”, 0.214.
For “GCGGGACTGTGGGTTCTAACCTGTTGCCTAG [GCGGGACCTAG_LTGcore_TG_RTGcore_CT] (site GCGGGACCTAG) (LTG core: TG, RTG core: CT)”, the “recombinant barcode read abundance (log10)” value was 0.316.
Regarding “GCGGGACTTTGGGTTCTAACCTGTTGCCTAA [GCGGGACCTAG_LTGcore_TT_RTGcore_TT] (site GCGGGACCTAG) (LTG core: TT, RTG core: TT)”, the “recombinant barcode read abundance (log10)” value worked out at 0.186.
Next, “GGACACCAATGGGTTCTAACCTGTTGCCTAG [GGACACCCTAG_LTGcore_AA_RTGcore_CT] (site GGACACCCTAG) (LTG core: AA, RTG core: CT)”: 0.294.
